Experiments:
ROCK1 = ROCK1 (Homo sapiens (Human), UniProt Q13464); test: ROCK1 kinase inhibition assay (peptide phosphorylation, LabChip 3000); assay type: biochemical; settings: 5 μM ATP, 3 nM ROCK1, 3 hours at 25° C.
Procedure: (§1) The peptide is >98% purity by Capillary Electrophoresis. The peptide is phosphorylated by the protein kinase ROCK1 or ROCK2. The ROCK1 or ROCK2 enzyme, substrate, and cofactors (ATP and Mg^2+) are combined in a well of a microtiter plate and incubated for 3 hours at 25° C. At the end of the incubation, the reaction is quenched by the addition of an EDTA-containing buffer. The substrate and product are separated and quantified electrophoretically using the microfluidic-based LABCHIP® 3000 Drug Discovery System from Caliper Life Sciences (Hopkinton, Mass.).
(§2) The components of the assay mixture are:
(§3) 10 μM Sodium Orthovanadate
(§4) 10 μM Beta-Glycerophosphate
(§5) 5 μM ATP (for ROCK1) or 7 μM ATP (for ROCK2)
(§6) 3 nM ROCK1 or 2.5 nM ROCK2 enzyme
Substrate and product peptides present in each sample are separated electrophoretically using the LABCHIP® 3000 capillary electrophoresis instrument. […] Change in the relative fluorescence intensity of the substrate and product peaks is the parameter measured reflecting enzyme activity. Capillary electrophoregramms (RDA acquisition files) are analyzed using HTS Well Analyzer software (Caliper Life Sciences, Hopkinton, Mass.). The kinase activity in each sample is determined as the product to sum ratio (PSR): P/(S+P), where P is the peak height of the product peptide and S is the peak height of the substrate peptide. For each compound, enzyme activity is measured at various concentrations (12 concentrations of compound spaced by 3× dilution intervals). […] Percent inhibition (Pinh) is determined using the following equation: Pinh=(PSR0%−PSRinh)/(PSR0%−PSR100%)*100 where PSRinh is the product sum ratio in the presence of inhibitor, PSR0% is the average product sum ratio in the absence of inhibitor, and PSR100% is the average product sum ratio in 100%-inhibition control samples. The IC50 values of inhibitors are determined by fitting the inhibition curves (Pinh versus inhibitor concentration) by 4 parameter sigmoidal dose-response model using XLfit 4 software (IBDS).

ROCK2 = ROCK2 (Homo sapiens (Human), UniProt O75116); test: ROCK2 kinase inhibition assay (peptide phosphorylation, LabChip 3000); assay type: biochemical; settings: 7 μM ATP, 2.5 nM ROCK2, 3 hours at 25° C.
Procedure: as §1, §2, §3, §4, §5, §6
Substrate and product peptides present in each sample are separated electrophoretically using the LABCHIP® 3000 capillary electrophoresis instrument. […] Change in the relative fluorescence intensity of the substrate and product peaks is the parameter measured reflecting enzyme activity. Capillary electrophoregramms (RDA acquisition files) are analyzed using HTS Well Analyzer software (Caliper Life Sciences, Hopkinton, Mass.). The kinase activity in each sample is determined as the product to sum ratio (PSR): P/(S+P), where P is the peak height of the product peptide and S is the peak height of the substrate peptide. For each compound, enzyme activity is measured at various concentrations (12 concentrations of compound spaced by 3× dilution intervals). Negative control samples (0%-inhibition in the absence of inhibitor) and positive control samples (100%-inhibition in the presence of 20 mM EDTA) are assembled in replicates of four and are used to calculate %-inhibition values for each compound at each concentration. Percent inhibition (Pinh) is determined using the following equation: Pinh=(PSR0%−PSRinh)/(PSR0%−PSR100%)*100 where PSRinh is the product sum ratio in the presence of inhibitor, PSR0% is the average product sum ratio in the absence of inhibitor, and PSR100% is the average product sum ratio in 100%-inhibition control samples. The IC50 values of inhibitors are determined by fitting the inhibition curves (Pinh versus inhibitor concentration) by 4 parameter sigmoidal dose-response model using XLfit 4 software (IBDS).

K562 cells = test: Cell viability assay (CellTiter-Blue), K562; assay type: cell-based; settings: Homo sapiens; K562 (does not express ITD-FLT3), 72 hours treatment
Procedure: (§7) Cell viability in the presence of varying concentrations of the above listed compounds at different time points was used to assess cytotoxicity and the effect of the compounds on cell proliferation.
Cell viability was measured by the […]-BLUE® cell viability assay from Promega (Madison, Wis.). This procedure measures the conversion of the indicator dye (resazurin) to resorufin, an indicator of cell viability. Following treatment, growth media was removed and cells were incubated with 20 μl of […]-BLUE® Reagent and growth media for 1-4 hours at 37° C. Fluorescence values were measured at 535/590 nm using a Beckman-Coulter DTX-880 microplate reader.
Cells were grown to 70% confluency, trypsinized, counted, and seeded in 96 well flat-bottom plates at a final concentration of 2.5×10^3-5×10^3 cells/well (Day 0). Cells were allowed to incubate in growth media for 24 hours to allow for maximum adhesion. Treatment with the test agents or standard agents began on Day 1 and continued for 72 hours. At the 72-hour time point, treatment containing media was removed. Viable cell numbers were quantified by the […]-BLUE® cell viability assay as described above. Experiments were repeated at least twice with the same concentrations to determine growth inhibitory activity. Results from these studies were used to calculate an IC50 value (concentration of drug that inhibits cell growth by 50 percent of control) for each compound.
(§8) For single agent and combination studies, data from each experiment was collected and expressed as % Cell Growth using the following calculation: % Cell Growth=(ftest/fvehicle)×100 Where ftest is the fluorescence of the tested sample, and fvehicle is the fluorescence of the vehicle in which the drug is dissolved. Dose response graphs and IC50 values were generated using Prism 4 software (GraphPad) using the following equation: Y=(Top−Bottom)/(1+10^((logIC50-X)[…])) Where X is the logarithm of the concentration and Y is the response. Y starts at the Bottom and goes to the Top with a sigmoid shape.
(§9) The experiments also evaluated the selectivity of the compounds for inhibiting growth of cancer cells carrying a mutation in the Flt3 gene. The MV411 cell line expresses the mutant allele of Flt3 with internal tandem duplications (ITD) of the gene. See Quentmeier et al., “FLT3 Mutations in Acute Myeloid Leukemia Cell Lines,” Leukemia 17(1), 2003, 120-124. […] See Grafone et al., “Monitoring of FLT3 Phosphorylation Status and Its Response to Drugs By Flow Cytometry in AML Blast Cells,” Hematol Oncol. 26(3), 2008, 159-166.

MV411 cells = test: Cell viability assay (CellTiter-Blue), MV411; assay type: cell-based; settings: for FLT3-ITD+ Selectivity (K562/MV411): ratio of K562 to MV411 IC50; for IC50: Homo sapiens, MV4-11, MV411 (ITD-FLT3+), 72 hours treatment
Procedure: as §7
This procedure measures the conversion of the indicator dye (resazurin) to resorufin, an indicator of cell viability. […] Fluorescence values were measured at 535/590 nm using a Beckman-Coulter DTX-880 microplate reader.
Cells were grown to 70% confluency, trypsinized, counted, and seeded in 96 well flat-bottom plates at a final concentration of 2.5×10^3-5×10^3 cells/well (Day 0). Cells were allowed to incubate in growth media for 24 hours to allow for maximum adhesion. Treatment with the test agents or standard agents began on Day 1 and continued for 72 hours. At the 72-hour time point, treatment containing media was removed. […] Experiments were repeated at least twice with the same concentrations to determine growth inhibitory activity.
as §8, §9

ROCK2, sequence (O75116 whole entry): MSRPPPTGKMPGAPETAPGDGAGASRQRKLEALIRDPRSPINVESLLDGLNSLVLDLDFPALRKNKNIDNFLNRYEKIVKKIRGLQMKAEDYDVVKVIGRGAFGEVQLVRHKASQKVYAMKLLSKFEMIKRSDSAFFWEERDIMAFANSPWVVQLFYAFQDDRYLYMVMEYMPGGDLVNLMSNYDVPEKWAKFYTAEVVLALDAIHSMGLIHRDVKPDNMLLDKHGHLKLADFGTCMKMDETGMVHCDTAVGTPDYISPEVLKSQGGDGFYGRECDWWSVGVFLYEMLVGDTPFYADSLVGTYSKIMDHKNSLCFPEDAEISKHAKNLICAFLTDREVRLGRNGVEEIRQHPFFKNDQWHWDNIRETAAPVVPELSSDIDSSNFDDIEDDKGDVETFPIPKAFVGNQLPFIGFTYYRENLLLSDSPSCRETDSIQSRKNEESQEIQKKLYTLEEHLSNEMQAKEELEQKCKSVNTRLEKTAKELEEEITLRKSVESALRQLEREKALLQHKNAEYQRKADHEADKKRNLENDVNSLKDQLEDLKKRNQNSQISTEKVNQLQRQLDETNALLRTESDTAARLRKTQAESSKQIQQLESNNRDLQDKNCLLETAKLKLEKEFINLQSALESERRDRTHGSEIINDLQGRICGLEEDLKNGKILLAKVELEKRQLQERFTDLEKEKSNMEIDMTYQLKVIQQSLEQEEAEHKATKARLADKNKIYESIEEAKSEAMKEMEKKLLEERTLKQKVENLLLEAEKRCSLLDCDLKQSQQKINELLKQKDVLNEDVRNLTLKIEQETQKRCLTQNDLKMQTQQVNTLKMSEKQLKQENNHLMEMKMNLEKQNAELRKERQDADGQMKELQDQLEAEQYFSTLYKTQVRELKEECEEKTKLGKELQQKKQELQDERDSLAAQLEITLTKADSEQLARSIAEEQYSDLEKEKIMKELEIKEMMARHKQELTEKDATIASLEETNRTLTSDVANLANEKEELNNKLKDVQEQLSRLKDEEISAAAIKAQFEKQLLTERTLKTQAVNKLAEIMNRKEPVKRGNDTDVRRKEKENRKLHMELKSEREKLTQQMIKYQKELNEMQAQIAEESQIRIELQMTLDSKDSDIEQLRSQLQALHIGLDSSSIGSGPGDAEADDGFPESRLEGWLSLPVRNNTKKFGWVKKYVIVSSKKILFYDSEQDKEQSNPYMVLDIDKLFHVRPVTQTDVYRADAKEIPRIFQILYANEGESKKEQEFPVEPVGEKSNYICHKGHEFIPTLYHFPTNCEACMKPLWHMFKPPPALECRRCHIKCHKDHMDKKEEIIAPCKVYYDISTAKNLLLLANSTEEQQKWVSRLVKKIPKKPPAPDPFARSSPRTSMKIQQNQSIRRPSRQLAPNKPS
ROCK1, sequence (Q13464 whole entry): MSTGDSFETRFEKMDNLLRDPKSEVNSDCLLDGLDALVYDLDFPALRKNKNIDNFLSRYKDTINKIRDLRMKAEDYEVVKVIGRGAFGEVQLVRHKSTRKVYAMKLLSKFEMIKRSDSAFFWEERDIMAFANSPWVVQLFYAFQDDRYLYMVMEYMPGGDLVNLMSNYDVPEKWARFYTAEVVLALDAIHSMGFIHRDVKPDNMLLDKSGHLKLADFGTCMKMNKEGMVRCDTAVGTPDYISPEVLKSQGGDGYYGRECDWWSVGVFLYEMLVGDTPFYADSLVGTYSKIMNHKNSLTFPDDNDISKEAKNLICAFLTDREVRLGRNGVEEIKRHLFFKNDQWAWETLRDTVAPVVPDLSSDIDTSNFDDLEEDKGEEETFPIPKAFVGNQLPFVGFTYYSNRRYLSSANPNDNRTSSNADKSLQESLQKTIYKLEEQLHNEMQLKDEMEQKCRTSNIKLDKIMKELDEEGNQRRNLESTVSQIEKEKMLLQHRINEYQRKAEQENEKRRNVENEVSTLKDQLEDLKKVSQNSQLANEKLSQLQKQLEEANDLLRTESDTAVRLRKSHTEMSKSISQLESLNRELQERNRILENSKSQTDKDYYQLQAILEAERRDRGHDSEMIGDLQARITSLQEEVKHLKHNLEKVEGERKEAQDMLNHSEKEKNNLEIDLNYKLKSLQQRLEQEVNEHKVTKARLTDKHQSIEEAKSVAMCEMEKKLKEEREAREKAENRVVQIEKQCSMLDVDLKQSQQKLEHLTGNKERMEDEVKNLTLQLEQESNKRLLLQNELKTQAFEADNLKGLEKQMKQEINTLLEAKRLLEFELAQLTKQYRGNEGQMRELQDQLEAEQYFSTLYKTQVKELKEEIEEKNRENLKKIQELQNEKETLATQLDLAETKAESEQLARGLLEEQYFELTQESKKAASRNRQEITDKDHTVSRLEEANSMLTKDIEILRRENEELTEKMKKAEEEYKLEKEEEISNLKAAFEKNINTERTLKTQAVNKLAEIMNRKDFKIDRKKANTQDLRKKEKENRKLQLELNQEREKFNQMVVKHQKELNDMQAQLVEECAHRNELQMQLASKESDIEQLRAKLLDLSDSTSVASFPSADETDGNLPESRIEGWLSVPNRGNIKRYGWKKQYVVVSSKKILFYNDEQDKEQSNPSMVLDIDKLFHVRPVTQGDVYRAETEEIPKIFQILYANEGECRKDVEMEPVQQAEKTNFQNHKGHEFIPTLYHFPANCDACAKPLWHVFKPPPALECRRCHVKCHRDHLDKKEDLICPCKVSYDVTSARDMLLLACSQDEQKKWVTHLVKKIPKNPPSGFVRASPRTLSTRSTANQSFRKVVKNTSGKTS

| SMILES | IC50 (ROCK1) [µM] | IC50 (ROCK2) [µM] | IC50 (K562 cells) [µM] | IC50 (MV411 cells) [µM] | FLT3-ITD+ Selectivity (K562/MV411) (MV411 cells) |
| --- | --- | --- | --- | --- | --- |
| O=C(N[C@H](CO)c1cccc(F)c1)c1cc(-c2ccncc2)[nH]n1 [Compound 1] | 0.207 | 0.0276 | > 100 |  | >1 |
| COc1cccc(CNC(=O)c2cc3ccc(-c4cn[nH]c4)nc3s2)c1 [Compound 40] | 0.164 | 0.017 |  | 14.8 | >7 |
| COc1cccc(CN(CCN(C)C)C(=O)c2cc3ccc(-c4cn[nH]c4)nc3s2)c1 [Compound 59] |  | 0.02 | 25 | 4.5 | 6 |
| CC(C)NC(=O)c1cccc(CNC(=O)c2cc3ccc(-c4cn[nH]c4)nc3s2)c1 [Compound 60] |  |  | 65 | 12.9 | 5 |
| C[C@@H](NC(=O)c1cc(-c2ccncc2)n[nH]1)c1cccc(Cl)c1 [Compound 66] |  | 0.0098 |  |  |  |
| O=C(N[C@H](CO)c1cccc(Cl)c1)c1cc(-c2ccncc2)n[nH]1 [Compound 67] |  | 0.0101 |  |  |  |
| O=C(N[C@H](CO)c1ccccc1)c1cc(-c2ccncc2)n[nH]1 [Compound 68] |  | 0.509 |  |  |  |

Further compounds by falling IC50 (ROCK2), results first:

| IC50 (ROCK1) [µM] | IC50 (ROCK2) [µM] | IC50 (K562 cells) [µM] | IC50 (MV411 cells) [µM] | SMILES | FLT3-ITD+ Selectivity (K562/MV411) (MV411 cells) |
| --- | --- | --- | --- | --- | --- |
|  | 0.0292 |  |  | C[C@@H](NC(=O)c1cc(-c2ccncc2)n[nH]1)c1cccc(F)c1 [Compound 64] |  |
| 0.0651 | 0.0174 | > 100 | 7.1 | COc1cccc(CNC(=O)c2cc3ccc(-c4ccncc4)nc3s2)c1 [Compound 39] | >14 |
|  | 0.0071 | 54 | 8.2 | COc1cccc([C@@H](CO)NC(=O)c2cc3ccc(-c4cn[nH]c4)nc3s2)c1 [Compound 61] | 7 |
|  | 0.0045 | 31 | 1.6 | COc1cccc([C@@H](C)NC(=O)c2cc3ccc(-c4cn[nH]c4)nc3s2)c1 [Compound 58] | 19 |
